These results are taken from patent US20160317531A1, “RIBONUCLEOTIDE REDUCTASE INHIBITORS SENSITIZE TUMOR CELLS TO DNA DAMAGING AGENTS” (THE GENERAL HOSPITAL CORPORATION, priority 2013, published 2016).

One data set deals with Notch signalling. The data set can be described thus: RBP-Jk-Fluc reporter assay in 293T cells. The data set is classed as cell-based. Here is the method: 293T cells were infected with lenti-RBP-Jk-Fluc vector and treated with 50 μM HU or γ-secretase inhibitor DAPT for […]. Cell lysates was imaged and analyzed for Fluc activity with the Xenogen IVIS 200 Imaging System. **p<0.01 vs. DMSO (n=8 for DMSO, n=5 for HU or DAPT treatment).
(§1) Since HU is known to target ribonucleotide reductase subunit 2 (RNR), knockdown experiment was first performed in different cell lines using shRNA against RNR (shRNR) or scrambled control (ShScram) and different concentrations of TMZ. […] Other ribonucleotide reductase (RNR) inhibitors were further evaluated to determine if a similar effect as HU is obtained on GBM. GBM cells from recurrent tumors expressing Gluc were treated in a 96-well plate with either fludarabine or gemcitabine—classical RNR inhibitors—and cell viability was assessed by the Gluc assay. […] The RBP-Jk-Fluc reporter plasmid which carries RBP-Jk transcriptional response element driving the expression of Fluc34 was used. RBP-Jk is a DNA binding transcription factor and a direct downstream modulator of Notch signalling. Thus, this reporter can indirectly monitor Notch activity (Minoguchi, S., et al., Mol Cell Biol 1997, 17, 2679-2687). 293T cells were transfected with this plasmid, treated with 30 μM HU, and monitored Fluc activity 3 days later.

A further data set deals with U87 tumors. The data set can be described thus: Intracranial U87-Fluc tumor model, Fluc imaging and survival. The note with it: 5 mg/kg TMZ i.p., 50 mg/kg HU i.p., start one week post-implantation.
Data set [1] deals with U87R1, U87R2, SNZ308R1, SNZ308R2, HS683R1 and HS683R2 TMZ-resistant cells. Kind of data set: Gluc cell viability assay, TMZ-resistant glioma subclones. The data set is classed as cell-based. Here is the method:
(§2) FIG. 1A is a set of graphs showing the effects of TMZ on tumor cells. U87, SNZ308, HS683 parental cells (P) and resistant clones (Res) were treated with different amounts of TMZ. After four days aliquots of conditioned medium were assayed for Gluc activity using 50 μl 2 μg/ml coelenterazine.
FIG. 1B is a set of graphs showing the effects of TMZ+HU on tumor cells. U87 and resistant clones R1/R2 were treated with TMZ and/or 100 μM HU. Cell viability was assessed by the Gluc assay.
The inventors previously generated two independent TMZ-resistant subclones from three different glioma cell lines (U87, SNZ308 and HS683) by long-term exposure (two times per week over seven weeks) to 100 μM TMZ, generating U87R1, U87R2, SNZ308R1, SNZ308R2, HS683R1 and HS683R2. These cells together with their parental counterparts were first engineered by lentivirus vector transduction to stably express the naturally secreted Gaussia luciferase (Gluc) as a reporter for cell viability. […] In this case, cell viability can be monitored over time by assaying aliquots of conditioned medium from these cells for Gluc activity. […] Using the U87R1 and U87R2 TMZ-resistant cells and the Gluc high-throughput screening assay (Badr, C. E., et al., Assay Drug Dev Technol, 2011 9, 281-289), a small library of 100 known anti-cancer agents was screened in the presence and absence of 100 μM TMZ. […]

The next data set has as its system U87R1 tumors. The data set can be described thus: Intracranial U87R1-Fluc (TMZ-resistant) tumor model, Fluc imaging and survival. The note with it: 5 mg/kg TMZ i.p., 50 mg/kg HU i.p., start one week post-implantation.
For data set [2] the following is noted: for certain chemotherapeutics; cited from earlier work.
Data set [3] is classed as in vivo. The note with it: mice treated four consecutive days; HU 30 mg/kg, TMZ 30 mg/kg. Here is the method:
Primary GBM8 cells24 (from newly diagnosed tumor with methylated MGMT (Wakimoto, H., et al., Neuro Oncol 2012, 14, 132-144)) were grown in stem cell media as neural spheres. […] Upon intracranial injection, these cells formed tumors and infiltrated the brain of nude mice similar to human tumors (FIGS. 4A-4C). This model was used to test the efficacy of HU in combination with TMZ. Four weeks after implantation of 100,000 GBM8 cells, when tumors started to rapidly grow (as observed by Fluc imaging), mice were divided into two groups (n=20/group) which received DMSO vehicle or i.p. injection of 30 mg/kg TMZ four days/week over two weeks. […] Mice were then left off TMZ to allow for GBM tumors to recur potentially becoming resistant to TMZ, recapitulating the patient scenario. […] Next, the toxicity of this combined therapy was assessed by treating mice with either DMSO, TMZ, HU, or HU+TMZ for four consecutive days and analyzing the blood for white blood cells (WBC), hematocrit (HCT), mean corpuscular volume (MCV), red cell distribution width (RDW), hemoglobin (HGB), mean corpuscular hemoglobin (MCH), red blood cells (RBC), platelets (PLT), and mean platelet volume (MPV). […] Hematotoxicity on bone marrow was also evaluated by preparing bone marrow smears and counting viable cells from untreated and TMZ/HU-treated naïve mice as above.

The next data set concerns melanoma cells. The data set can be described thus: Sensitization of melanoma cells to TMZ. The data set is classed as cell-based. The note with it: FIG. 7.
Another data set concerns malignant gliomas. Conditions: in combination with radiation or cytotoxic chemotherapy, not TMZ; cited from earlier work.
Data set [4] concerns GBM8 tumors carrying methylated MGMT promoter. The data set can be described thus: Intracranial primary GBM8-Fluc-mCherry tumor model. In kind it is in vivo, nude mice. As to the method: FIG. 4A is an image showing that 10^5 GBM8 cells expressing Fluc and mCherry were stereotactically injected into the left midstriatum of nude mice brain.
FIG. 4D is a set of images showing the in vivo effects of TMZ+HU treatments on mice. Mice-bearing GBM8-Fluc-mCherry tumors were treated with TMZ or vehicle for two weeks, then left off TMZ for three weeks. TMZ-treated group was then divided into four subgroups which received vehicle, HU, TMZ, or HU+TMZ.
Primary GBM8 cells24 (from newly diagnosed tumor with methylated MGMT (Wakimoto, H., et al., Neuro Oncol 2012, 14, 132-144)) were grown in stem cell media as neural spheres. […] Upon intracranial injection, these cells formed tumors and infiltrated the brain of nude mice similar to human tumors (FIGS. 4A-4C). This model was used to test the efficacy of HU in combination with TMZ. Four weeks after implantation of 100,000 GBM8 cells, when tumors started to rapidly grow (as observed by Fluc imaging), mice were divided into two groups (n=20/group) which received DMSO vehicle or i.p. injection of 30 mg/kg TMZ four days/week over two weeks. […] Mice were then left off TMZ to allow for GBM tumors to recur potentially becoming resistant to TMZ, recapitulating the patient scenario. At this point, the TMZ group was divided into four subgroups (n=10/group) which received either DMSO, HU (50 mg/kg), TMZ (30 mg/kg) or HU+TMZ four days/week over three weeks. […] Next, the toxicity of this combined therapy was assessed by treating mice with either DMSO, TMZ, HU, or HU+TMZ for four consecutive days and analyzing the blood for white blood cells (WBC), hematocrit (HCT), mean corpuscular volume (MCV), red cell distribution width (RDW), hemoglobin (HGB), mean corpuscular hemoglobin (MCH), red blood cells (RBC), platelets (PLT), and mean platelet volume (MPV). No significant difference between different treated groups in comparison to DMSO control was found (Table 1). Hematotoxicity on bone marrow was also evaluated by preparing bone marrow smears and counting viable cells from untreated and TMZ/HU-treated naïve mice as above.

A further data set concerns GBM. Conditions: cited from earlier work.
The test system of data set [5] is U87, SNZ308, HS683 parental cells. The data set can be described thus: Gluc cell viability assay, parental glioma cell lines. The data set is classed as cell-based. The note with it: different amounts of TMZ, four days. Here is the method: as §2
The inventors previously generated two independent TMZ-resistant subclones from three different glioma cell lines (U87, SNZ308 and HS683) by long-term exposure (two times per week over seven weeks) to 100 μM TMZ, generating U87R1, U87R2, SNZ308R1, SNZ308R2, HS683R1 and HS683R2. These cells together with their parental counterparts were first engineered by lentivirus vector transduction to stably express the naturally secreted Gaussia luciferase (Gluc) as a reporter for cell viability. […] In this case, cell viability can be monitored over time by assaying aliquots of conditioned medium from these cells for Gluc activity. […] Using the U87R1 and U87R2 TMZ-resistant cells and the Gluc high-throughput screening assay (Badr, C. E., et al., Assay Drug Dev Technol, 2011 9, 281-289), a small library of 100 known anti-cancer agents was screened in the presence and absence of 100 μM TMZ. […] The same results were obtained when HU was used in combination with TMZ on SNZ308 and HS683 resistant lines (data not shown).

Data set [6] relates to TMZ-resistant primary glioma rpGBMa cells. The data set can be described thus: Gluc cell viability assay, recurrent GBM cells with RNR inhibitors and TMZ. The data set is classed as cell-based. The note with it: GBM cells from recurrent tumors, four days. Here is the method:
FIG. 5A is a plot showing that glioma cells are sensitized to TMZ by ribonucleotide reductase inhibition. 3×10^3 TMZ-resistant primary glioma rpGBMa cells expressing Gluc were treated with […] of ribonucleotide reductase (RNR) inhibitor Fludarabine or Gemcitabine, in the presence or absence of 100 μM TMZ. After four days aliquots of conditioned medium were assayed for Gluc activity using 50 μl 2 μg/ml coelenterazine. Data presented as the mean Gluc RLU/mL +/−SD (n=8; **p<0.01 vs. no TMZ treatment by two-way ANOVA).
as §1, with “RBP-Jk is a DNA binding transcription factor and a direct downstream modulator of Notch signalling. Thus, this reporter can indirectly monitor Notch activity (Minoguchi, S., et al., Mol Cell Biol 1997, 17, 2679-2687).” left out

Where [7] appears, read: second round, HU 50 mg/kg, TMZ 30 mg/kg, four days/week over three weeks.

Method for U87 tumors: U87 cells (20,000 cells/mouse) expressing Fluc were implanted in the brain of nude mice. One week later, mice were divided in four groups (n=10-20/group) and treated with 1). DMSO vehicle as control, 2). 50 mg/kg HU, 3). 1 mg/kg TMZ or 4). 1 mg/kg TMZ+50 mg/kg HU. In FIG. 2A, tumor growth was monitored over time by Fluc imaging. X-axis, days after treatment starts. In FIG. 2B, survival was recorded to generate the Kaplan-Meier plot. X-axis, days after treatment starts.
U87 cells (20,000 cells/mouse) expressing Fluc were implanted in the brain of nude mice. One week later, mice were divided in four groups (n=10-20/group) and treated with 1). DMSO vehicle as control, 2). 50 mg/kg HU, 3). 5 mg/kg TMZ or 4). 5 mg/kg TMZ+50 mg/kg HU. In FIG. 2C, tumor growth was monitored over time by Fluc imaging. X-axis, days after treatment starts. In FIG. 2D, survival was recorded to generate the Kaplan-Meier plot. X-axis, days after treatment starts.
U87 or U87R1 cells were first transduced with a lentivirus vector to stably express firefly luciferase (Fluc), a reporter which can be used to track tumor growth in vivo (Wurdinger, T., et al., Nat Methods 2008, 5, 171-173). Fifty thousands of these cells were intracranially injected in the brain of nude mice as previously described. One week post-tumor implantation, mice were randomized into four different groups receiving: (1) DMSO vehicle control; (2) intraperitoneal (i.p) injection of 5 mg/kg TMZ; (3) 50 mg/kg HU i.p.; (4) combination of TMZ+HU. Tumor growth was monitored over time by in vivo Fluc bioluminescence imaging using a cooled CCD camera (Wurdinger, T., et al., Nat Methods 2008, 5, 171-173).
GBM cells were first transduced with a lentivirus vector to stably express Fluc. Fifty thousands of these cells were intracranially injected in the brain of nude mice using the following coordinates from the bregma in mm: anterior-posterior +0.5 mm, medio-lateral +2.0 mm, dorso-ventral −2.5 mm. One week after implantation of 50,000 (low amount) or 200,000 (high amount) GBM cells, or 100 GBM spheres, mice were randomized into different treatment groups. Tumor growth was monitored over time by in vivo Fluc bioluminescence imaging after i.p. injection of 200 mg/kg D-luciferin substrate and acquiring signal using a cooled CCD camera (Wurdinger, T., et al., Nat Methods 2008, 5, 171-173).
Method for U87R1 tumors: U87R1 cells (20,000 cells/mouse) expressing Fluc were implanted in the brain of nude mice. One week later, mice were divided in four groups (n=10-20/group) and treated with 1). DMSO vehicle as control, 2). 50 mg/kg HU, 3). 5 mg/kg TMZ or 4). 5 mg/kg TMZ+50 mg/kg HU. In FIG. 2E, tumor growth was monitored over time by Fluc imaging. […] In FIG. 2F, survival was recorded to generate the Kaplan-Meier plot.
200,000 U87R1 cells expressing Fluc were implanted in the brain of nude mice. Two weeks later, mice were divided in two groups (n=10/group) and treated with either TMZ or TMZ+HU. Survival was recorded.
U87R1 cells expressing Fluc were implanted in the brain of nude mice. One week later, mice were divided in four groups (n=10-20/group) and treated with either DMSO vehicle, radiation (R; 3 Gy), HU, TMZ or R+TMZ+HU. Tumor growth was monitored over time by Fluc imaging and survival was recorded to generate the Kaplan-Meier plot.
U87 or U87R1 cells were first transduced with a lentivirus vector to stably express firefly luciferase (Fluc), a reporter which can be used to track tumor growth in vivo (Wurdinger, T., et al., Nat Methods 2008, 5, 171-173). Fifty thousands of these cells were intracranially injected in the brain of nude mice as previously described. One week post-tumor implantation, mice were randomized into four different groups receiving: (1) DMSO vehicle control; (2) intraperitoneal (i.p) injection of 5 mg/kg TMZ; (3) 50 mg/kg HU i.p.; (4) combination of TMZ+HU. Tumor growth was monitored over time by in vivo Fluc bioluminescence imaging using a cooled CCD camera (Wurdinger, T., et al., Nat Methods 2008, 5, 171-173). […]
GBM cells were first transduced with a lentivirus vector to stably express Fluc. […] Tumor growth was monitored over time by in vivo Fluc bioluminescence imaging after i.p. injection of 200 mg/kg D-luciferin substrate and acquiring signal using a cooled CCD camera (Wurdinger, T., et al., Nat Methods 2008, 5, 171-173).

On to `C[C@H](NC(=O)Cc1cc(F)cc(F)c1)C(=O)N[C@H](C(=O)OC(C)(C)C)c1ccccc1` [DAPT], for which the “change of Fluc activity” value in the data set with Notch signalling (γ-secretase inhibition) is “decrease of Fluc activity similar to HU”.

Regarding `NC(=O)NO` [HU, hydroxyurea], in the data set on U87 tumors, the mice survival entry was “no significant effect” and the “tumor growth (Fluc bioluminescence imaging)” value was “no significant effect”. Besides, the “sensitization of resistant cells to TMZ” value in [1] (U87R1 and U87R2, 100 μM HU, TMZ) is on record as “sensitize both resistance cell lines to TMZ”. In the data set with U87R1 tumors, the mice survival result was “no significant effect” and the “tumor growth (Fluc bioluminescence imaging)” value is “no significant effect”. The “effect on blood brain tumor permeability” value in data set [2] is reported as “increases the blood brain tumor permeability of certain chemotherapeutics”. In addition, the MPV in [3] is given as 6.3 ± 0.4. For the same compound, the “sensitization of melanoma cells to TMZ” value in the data set with melanoma cells was “sensitizes melanoma cells to TMZ”. Also, the “efficacy in malignant gliomas” value with malignant gliomas is “limited efficacy”. In the data set with Notch signalling (30 μM HU, 3 days), the “decrease in Fluc activity” value amounted to 50%.

For `Cn1nnc2c(C(N)=O)ncn2c1=O` [TMZ, 4-methyl-5-oxo-2,3,4,6,8-pentazabicyclo[4.3.0]nona-2,7,9-triene-9-carboxamide], the “tumor response, first round of treatment” value in data set [4] (30 mg/kg TMZ i.p. four days/week over two weeks, start four weeks after implantation) is given as “responded very well”. Besides, in [4] (setting [7]), the “survival rate, recurred tumors after TMZ break” value is “not a significant increase”. Also, the “tumor volume / tumor growth, recurred tumors after TMZ break” value in data set [4] (setting [7]) was “moderate effect”. Also, in the data set with U87 tumors, the mice survival entry is given as “moderate effect”. The figures for the “tumor growth (Fluc bioluminescence imaging)” value with U87 tumors and in the data set on U87R1 tumors were “moderate effect” and “not on U87R1 tumors”, respectively. In addition, the “cell viability (Gluc activity) on exposure to TMZ” value is “no significant effect” in data set [1] (resistant cell lines, up to 100 μM TMZ) and “sensitive to TMZ in a dose-dependent fashion” in [5]. Also, the median survival in the data set on GBM (TMZ added to standard of care including surgery and radiation, 12.1 months without) was 14.6 months. For the same compound, the “patients who die after 5 years” value in the data set on GBM (patients receiving both TMZ and radiation) is 90%. For the same compound, the “overall 2 years survival” value in the data set with GBM (randomized phase III, combined therapy, 10.9% without) was 27.2%. Also, in data set [3], the MPV is recorded as 6.5 ± 0.4. Besides, the “cell viability (Gluc assay), TMZ alone” value in data set [6] (100 μM TMZ) is “moderate-to-no effect”.

Take `Nc1ccn([C@@H]2O[C@H](CO)[C@@H](O)C2(F)F)c(=O)n1` [gemcitabine, 4-amino-1-(2-deoxy-2,2-difluoro-β-D-erythro-pentofuranosyl)pyrimidin-2(1H)-on]: in data set [6] (RNR inhibitor in presence or absence of 100 μM TMZ), the “sensitization of GBM cells to TMZ” value was “sensitized GBM cells to TMZ”.
